The record followed here is patent US20240025849A1 (MAX DELBRÜCK-CENTRUM FÜR MOLEKULARE MEDIZIN IN DER …, priority 2020, published 2024).

Read-outs that look alike come from different tables or passages of the source.

Assay [1] concerns primary cultured neonatal microglia. The assay is described as follows: LPS induced NO release, Griess assay, laboratory scaled setup.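 As to active: compounds at or above the IC50 cutoff were called inactive.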 Particulars: for IC50: Mus musculus, Microglia. Format: cell-based, mouse. How it is done: Primary cultured neonatal microglia. For preparation of cultured neonatal microglia, P0-P3 mice were used. 10 brains were extracted, meninges and cerebellum were removed and put on ice with Hank's balanced salt solution (HBSS). The dissected brains were washed 3 times before adding 400 μL trypsin (0.1 mg/L) and DNAse (5 μg/L) in phosphate buffered saline (PBS). After 2 min of incubation with this solution, the reaction was blocked by adding plain medium. After removal of the medium, 1 mg DNAse was added and the cells were mechanically dissociated, with a Pasteur pipette followed by a glass pipette. The cells were centrifuged for 10 min at 129 g at 4° C. The supernatant was discarded. The pellet was resuspended in plain medium and plated (2.5 brains/flask) in Poly-L-Lysine coated flasks. The cells were washed after 2 days with PBS and incubated for another 7 days in plain medium. Afterwards the medium was replaced by plain medium with 33% L929 conditioned medium. After 2 days, cells were harvested by shaking them for 30 min at 150 rpm. The supernatant was centrifuged for 10 min at 129 g at 4° C. The cells were plated into a 96 well plate (100 000 cells/well, 200 μL medium per well). This procedure could be repeated 2 times with a 2 day interval.
Griess assay. Cells were seeded according to the protocols described above, after compounds and stimuli were added, 100 μl of supernatant was transferred into a new 96 well plate and 100 μl freshly mixed Griess reagent were added. Griess reagent was composed of reagent A (100 mg Naphthylethylene in 50 ml aqua dest.) and reagent B (1 g Sulfanilamide, […] H3PO4 (85%) in 44 mL aqua dest.) mixed 1:1. The solution was carefully mixed and the absorbance was determined in a microplate reader at a wavelength of 550 nm.
Dissolved sodium nitrite in plain medium served as a standard. Total amount of nitrite was calculated by a linear regression of the standard curve.
The activity of the compounds listed in column 1 of Table 1 as inhibitors of NO production was compared in murine primary cultured neonatal microglia as described above.

Assay [2] concerns iNOS. The assay is described as follows: NOS enzyme activity assay (Eurofins), iNOS. Particulars: C1: 1 μM up to 5 μM as printed; 30 min reaction. Format: biochemical. As to the method: In mammalians NO is produced by the three isoforms of NOS: iNOS, eNOS, and nNOS. To evaluate the direct influence of cl on the different isoforms of NOS, an enzyme activity assay was conducted by Eurofins. C1 was mixed with the enzyme buffer, which included co-factors and substrates and by adding the enzyme the reaction was initiated. After 30 min the reaction was stopped, and NO concentration was measured. The results are normalised to positive control performed without any additional compounds and are presented as percentage in inhibition. […] To test the compounds effect on iNOS a concentration range from […] 5 μM were applied ([…], 1, 10, 100 nM, 1, and 5 μM), and for testing eNOS and nNOS 1 nM and 1 μM were applied.

The mark [3] stands for this setting: inhibitors of NO production, murine primary cultured neonatal microglia, read-out: IC50.
The mark [4] stands for this setting: inhibitors of NO production, murine primary cultured neonatal microglia, read-out: activity class (IC50).
[5] abbreviates: inhibitors of NO production, murine primary cultured neonatal microglia.
Setting [6] is: inhibitors of NO production, murine primary cultured neonatal microglia, read-out: active.

Take `COc1ccc(NC(=O)[C@@H](NC(=O)[C@@H]2CCCN2C(=O)CCc2ccccn2)c2ccc(OC)cc2)cc1` [Compound 25, (S)—N—((S)-1-(4-methoxyphenyl)-2-((4-methoxyphenyl)amino)-2-oxoethyl)-1-(3-(pyridin-2-yl)propanoyl)pyrrolidine-2-carboxamide]: the IC50 in assay [1] (setting [3]) was 6.88 µM; in assay [1] (setting [4]) it was below 10 µM. Also, the active entry in assay [1] (setting [5]) is recorded as “YES”.

Consider `COc1ccc([C@H](NC(=O)[C@@H]2CCCN2C(=O)OCc2ccccc2)C(=O)Nc2cnc(C)s2)cc1` [Compound 26, benzyl (S)-2-(((S)-1-(4-methoxyphenyl)-2-((2-methylthiazol-5-yl)amino)-2-oxoethyl)carbamoyl)pyrrolidine-1-carboxylate], for which the IC50 in assay [1] (setting [3]) was 2.5 µM; in assay [1] (setting [4]), below 10 µM. In addition, the active entry in assay [1] (setting [5]) is “YES”.

With `COc1ccc([C@H](NC(=O)[C@@H]2CCCN2C(=O)OCc2ccccc2)C(=O)Nc2cnc(C3CC3)nc2)cc1` [Compound 27, benzyl(S)-2-(((S)-2-((2-cyclopropylpyrimidin-5-yl)amino)-1-(4-methoxyphenyl)-2-oxoethyl)carbamoyl)pyrrolidine-1-carboxylate], the IC50 in assay [1] (setting [3]) is 1.91 µM; in assay [1] (setting [4]), below 10 µM. Further, the active entry in assay [1] (setting [5]) is “YES”.

In the case of `COc1ccc(NC(=O)[C@@H](NC(=O)[C@@H]2CCCN2C(=O)OC(C)(C)C)c2ccc(OC)cc2)cc1` [Compound 28, tert-butyl (S)-2-(((S)-1-(4-methoxyphenyl)-2-((4-methoxyphenyl)amino)-2-oxoethyl)carbamoyl)pyrrolidine-1-carboxylate], the IC50 is 3.3 µM in assay [1] (setting [3]) and below 10 µM in assay [1] (setting [4]). The active result in assay [1] (setting [5]) is listed as “YES”.

As to `COc1ccc(NC(=O)[C@@H](NC(=O)[C@@H]2CCCN2C(=O)OCc2ccccc2)c2ccc(OCCOCCOCCOCCOCCOCCNC(=O)CCCC[C@@H]3SC[C@@H]4NC(=O)N[C@@H]43)cc2)cc1` [Compound 29, benzyl (S)-2-(((S)-2-((4-methoxyphenyl)amino)-2-oxo-1-(4-((19-oxo-23-((3aS,4S,6aR)-2-oxohexahydro-1H-thieno[3,4-d]imidazol-4-yl)-3,6,9,12,15-pentaoxa-18-azatricosyl)oxy)phenyl)ethyl)carbamoyl)pyrrolidine-1-carboxylate], the IC50 is 2.36 µM in assay [1] (setting [3]) and below 10 µM in assay [1] (setting [4]). In addition, in assay [1] (setting [5]), the active entry is listed as “YES”.

On to `COc1ccc(NC(=O)[C@@H](NC(=O)[C@@H]2CCN2C(=O)OCc2ccccc2)c2ccc(OC)cc2)cc1` [Compound 30, benzyl (S)-2-(((S)-1-(4-methoxyphenyl)-2-((4-methoxyphenyl)amino)-2-oxoethyl)carbamoyl)azetidine-1-carboxylate], for which the IC50 in assay [1] (setting [4]) was below 1 µM. The active entry in assay [1] (setting [5]) is “YES”.

For `COc1ccc(NC(=O)[C@@H](NC(=O)[C@@H]2C[C@@H]3CCCC[C@@H]3N2C(=O)OCc2ccccc2)c2ccc(OC)cc2)cc1` [Compound 31, benzyl(2S,3aS,7aS)-2-(((S)-1-(4-methoxyphenyl)-2-((4-methoxyphenyl)amino)-2-oxoethyl)carbamoyl)octahydro-1H-indole-1-carboxylate], the IC50 in assay [1] (setting [4]) is below 10 µM. For the same molecule, the active entry in assay [1] (setting [5]) is reported as “YES”.

In the case of `COc1ccc(NC(=O)[C@@H](NC(=O)[C@@H]2Cc3ccccc3CN2C(=O)OCc2ccccc2)c2ccc(OC)cc2)cc1` [Compound 32, benzyl (S)-3-(((S)-1-(4-methoxyphenyl)-2-((4-methoxyphenyl)amino)-2-oxoethyl)carbamoyl)-3,4-dihydroisoquinoline-2(1H)-carboxylate], the IC50 in assay [1] (setting [4]) was below 10 µM. For the same molecule, in assay [1] (setting [5]), the active result is “YES”.

`COc1ccc(NC(=O)[C@@H](NC(=O)[C@]2(C)CCCN2C(=O)OCc2ccccc2)c2ccc(OC)cc2)cc1` [Compound 33, benzyl (S)-2-(((S)-1-(4-methoxyphenyl)-2-((4-methoxyphenyl)amino)-2-oxoethyl)carbamoyl)-2-methylpyrrolidine-1-carboxylate]: the IC50 in assay [1] (setting [4]) is below 0.2 µM. For the same molecule, the active entry in assay [1] (setting [5]) is reported as “YES”.

For the molecule `COc1ccc(NC(=O)[C@@H](NC(=O)[C@@H]2CCCCN2C(=O)OCc2ccccc2)c2ccc(OC)cc2)cc1` [Compound 34, benzyl (S)-2-(((S)-1-(4-methoxyphenyl)-2-((4-methoxyphenyl)amino)-2-oxoethyl)carbamoyl)piperidine-1-carboxylate], the IC50 in assay [1] (setting [4]) is below 0.2 µM. Also, the active entry in assay [1] (setting [5]) is listed as “YES”.

`COc1ccc(NC(=O)[C@@H](NC(=O)[C@@H]2CCCN2CCCc2ccccc2)c2ccc(OC)cc2)cc1` [Compound 39, (S)—N—((S)-1-(4-methoxyphenyl)-2-((4-methoxyphenyl)amino)-2-oxoethyl)-1-(3-phenylpropyl)pyrrolidine-2-carboxamide]: the IC50 in assay [1] (setting [6]) was at least 10 µM.

In the case of `COc1ccc([C@H](NC(=O)[C@@H]2CCCN2C(=O)OCc2ccccc2)C(=O)Nc2cnn(C)c2)cc1` [Compound 40, benzyl (S)-2-(((S)-1-(4-methoxyphenyl)-2-((1-methyl-1H-pyrazol-4-yl)amino)-2-oxoethyl)carbamoyl)pyrrolidine-1-carboxylate], in assay [1] (setting [6]), the IC50 is at least 10 µM.

Consider `COc1ccc([C@H](NC(=O)[C@@H]2CCCN2C(=O)OCc2ccccc2)C(=O)Nc2cccc3c2ccn3C)cc1` [Compound 41, benzyl (S)-2-(((S)-1-(4-methoxyphenyl)-2-((1-methyl-1H-indol-4-yl)amino)-2-oxoethyl)carbamoyl)pyrrolidine-1-carboxylate], for which the IC50 in assay [1] (setting [6]) was at least 10 µM.

For the molecule `COc1ccc([C@H](NC(=O)[C@@H]2CCCN2C(=O)OCc2ccccc2)C(=O)Nc2ccc3c(c2)n(C)c(=O)n3C)cc1` [Compound 42, benzyl (S)-2-(((S)-2-((1,3-dimethyl-2-oxo-2,3-dihydro-1H-benzo[d]imidazol-5-yl)amino)-1-(4-methoxyphenyl)-2-oxoethyl)carbamoyl)pyrrolidine-1-carboxylate], the IC50 in assay [1] (setting [6]) was at least 10 µM.

Take `COc1ccc([C@H](NC(=O)[C@@H]2CCCN2C(=O)OCc2ccccc2)C(=O)Nc2ccccc2)cc1` [Compound 43, benzyl (S)-2-(((S)-1-(4-methoxyphenyl)-2-oxo-2-(phenylamino)ethyl)carbamoyl)pyrrolidine-1-carboxylate]: the IC50 in assay [1] (setting [6]) is at least 10 µM.

For `COc1ccc(NC(=O)[C@@H](NC(=O)[C@@H]2CCCN2)c2ccc(OC)cc2)cc1` [Compound 44], in assay [1] (setting [6]), the IC50 was at least 10 µM.

For the molecule `COc1ccc(NC(=O)[C@@H](NC(=O)[C@@H]2CCCN2C(=O)CCCCCNC(=O)CCCC[C@@H]2SC[C@@H]3NC(=O)N[C@@H]32)c2ccc(OC)cc2)cc1` [Compound 45], the IC50 in assay [1] (setting [6]) is at least 10 µM.

As to `COc1ccc(NC(=O)[C@@H](NC(=O)[C@@H]2CCCN2C(C)=O)c2ccc(OC)cc2)cc1` [Compound 47], in assay [1] (setting [6]), the IC50 is at least 10 µM.

With `COc1ccc([C@H](NC(=O)[C@@H]2CCCN2C(=O)OCc2ccccc2)C(=O)Nc2ccc3nncn3c2)cc1` [Compound 48], the IC50 in assay [1] (setting [6]) is at least 10 µM.

For `COc1ccc([C@H](NC(=O)[C@@H]2CCCN2C(=O)OCc2ccccc2)C(=O)Nc2cccnc2)cc1` [Compound 49], in assay [1] (setting [6]), the IC50 was at least 10 µM.

As to `COc1ccc(NC(=O)[C@H](NC(=O)[C@@H]2CCCN2C(=O)OCc2ccccc2)c2ccc(OC)cc2)cc1` [Compound 50, benzyl-(S)-2-(((R)-1-(4-methoxyphenyl)-2-((4-methoxyphenyl)amino)-2-oxoethyl)carbamoyl)-pyrrolidine-1-carboxylate], the “inhibitory effect in the NO release assay” value in assay [1] (FIG. 9) is recorded as “not”. The IC50 was 40 µM in assay [1] (0.002 to 20 μM, FIG. 9, read-out: IC50, LPS induced NO production (stereoisomers)) and at least 10 µM in assay [1] (setting [6]).

As for `COc1ccc(NC(=O)[C@@H](NC(=O)[C@@H]2C[C@@H](O)CN2C(=O)CCC2CCCCC2)c2ccc(OC)cc2)cc1` [Compound 53, (2S,4R)-1-(3-cyclohexylpropanoyl)-4-hydroxy-N—((S)-1-(4-methoxyphenyl)-2-((4-methoxyphenyl)amino)-2-oxoethyl)pyrrolidine-2-carboxamide], the IC50 in assay [1] (setting [4]) is below 1 µM. In addition, the active entry in assay [1] (setting [5]) is “YES”.

For the molecule `CC(=N)NCc1cccc(CN)c1` [W1400, reference compound], in assay [2], the “enzymatic activity of iNOS” value is “reduce the enzyme activity as predicted”.
